Experimental findings from ChEMBL document CHEMBL1157539, “Thousands of chemical starting points for antimalarial lead identification” (Nature, 2010) are described below.

This experiment deals with Plasmodium falciparum. In words: GSK_TCMDC: Inhibition of Plasmodium falciparum 3D7 in whole erythrocytes, using parasite LDH activity as an index of growth. Conditions: Plasmodium falciparum, 3D7. It counts as functional, organism-based.

Molecule `CCc1cn2c3c(cc(C(=O)N[C@@H](Cc4ccccc4)[C@H](O)CNC4CCCCC4)cc13)N(C)S(=O)(=O)C2` registered an XC50 of 87.1 nM. Take `CCOC(=O)c1ccc(NC(=O)Nc2cccc(-c3ccc(-c4nc5cc(F)ccc5[nH]4)cc3)c2)cc1`: the XC50 amounted to 94.5 nM.

On to `COc1ccc(-c2ccc(NC(=O)c3ccc(Cl)cc3)cc2)cc1CN1CCC(O)CC1`, for which the XC50 was 1090 nM. Next, `CCCCOc1c(CCNCCCCNCCc2cc(F)c3ccccc3c2OCCCC)cc(F)c2ccccc12`: 629 nM; `CCCCN1CC[C@@H](CCC(O)c2cc(OCCC)nc3ccc(OC)cc23)[C@@H](CC)C1` (some centres not stated): 356 nM; `CN(C)Cc1cc2c(O)c(Cc3ccccc3)ccc2o1`: 1090 nM.

For the molecule `O=S(=O)(NCCN1CCCC1)c1ccc(-c2ccc(CNC3Cc4ccccc4C3)cc2)cc1F`, the XC50 came to 999 nM. `O=C(NC1CCN(c2ccnc3ccccc23)C1)c1ccc(OC(F)(F)F)cc1` (configuration not stated) had an XC50 of 1150 nM. Take `O=C(O)c1ccc(-c2cnc3ccc(NC4CCC(O)CC4)nn23)cc1` (configuration not stated): the XC50 was 995 nM.

Molecule `Cn1ncc2c3c(CCN4CCC(NCc5cc6c(cn5)OCCO6)CC4)c(Cl)cnc3ccc21` had an XC50 of 775 nM. `Cc1cccc2nc(-c3cccc(-c4cccc(NC(=O)Cc5c[nH]cn5)c4)c3)[nH]c12` yielded an XC50 of 675 nM. The molecule `CN1CCC(NCc2ccc(-c3cccc(S(=O)(=O)NCc4ccccc4)c3)cc2)CC1` returned an XC50 of 324 nM. The molecule `CS(=O)(=O)c1ccccc1CNC(=O)c1ccc(-c2cccc(-c3nc4cc(C(F)(F)F)ccc4[nH]3)c2)cc1` had an XC50 of 866 nM.

`CCOc1ccc(OCC(=O)Nc2nc(-c3ccc(OC)cc3)c(C)s2)cc1` had an XC50 of 220 nM. The molecule `COC(=O)CCn1c(C2CCN(CC3CCC(NC(=O)/C=C/c4ccc(Cl)c(Cl)c4)CC3)CC2)nc2ccccc21` (configuration not stated) came in with an XC50 of 951 nM. `COc1ccc2nc(-c3cc(-c4ccc(NC(=O)C(C)C)cc4)cnc3N)[nH]c2c1` returned an XC50 of 557 nM. For `O=S(=O)(c1cc(Cl)ccc1Cl)N1CCCCC(c2ccc(C(F)(F)F)cc2)=N1` the value was 998 nM; for `CCN(CC)CC(O)CNc1c2ccc([N+](=O)[O-])cc2nc2cc(OC)c(OC)cc12` (configuration not stated), 266 nM; for `O=C(NC1CCN(CC2(c3ccccc3)CCCC2)CC1)c1n[nH]cc1Cl`, 1040 nM. For the molecule `CCC(CO)NCC(O)Cn1c2ccc(Br)cc2c2cc(Br)ccc21` (configuration not stated), the XC50 came out at 783 nM. Consider `c1ccc(CNc2nc(NCCN3CCCCC3)nc3ccccc23)cc1`, for which the XC50 amounted to 1020 nM. In turn, `CNCCCCCCOc1ccc(CC(C)NCC(O)c2cccc(C(F)(F)F)c2)cc1` (configuration not stated) came in with an XC50 of 884 nM.

On to `O=C(Nc1ccc(C(=O)OCC2CCCN3CCCCC23)cc1)c1ccc([N+](=O)[O-])cc1` (configuration not stated), for which the XC50 is 716 nM. In turn, `Cc1nn(-c2ccccc2)nc1C(=O)NC1CCN(CCNC(=O)c2ccc(Cl)c(Cl)c2)CC1` displayed an XC50 of 868 nM. Next, `COc1cc2c(cc1S(=O)(=O)c1ccc(NC(=O)c3cc4ccccc4s3)cc1)CCN(C)CC2`: 837 nM; `CN(C)CCCNCc1ccc(-c2ccc(CNCCc3ccccc3)cc2)cc1`: 994 nM; `Fc1ccc2[nH]c(-c3ccc(-c4ccc(CNCCc5cccnc5)cc4)s3)nc2c1`: 236 nM. With `Cc1nnsc1C(=O)Nc1ccc(-c2cccc(-c3nc4cccc(C)c4[nH]3)c2)cc1`, the XC50 worked out at 630 nM. `O=C(NC1CCC(N2CCC(Cc3ccc(F)cc3)CC2)CC1)c1cc2ccccc2[nH]1` (configuration not stated) returned an XC50 of 868 nM. In turn, `CCn1c(-c2nonc2N)nc2c(-c3cc4ccccc4s3)ncc(C(=O)N3CCC(N)C3)c21` (configuration not stated) returned an XC50 of 871 nM.

Turning to `CN1CCC(c2cc3c(cc2Br)CCN3C(=O)Nc2ccc(-c3ccncc3)c(Cl)c2)CC1`, the XC50 came out at 1010 nM. The molecule `COc1cccc2cc(C(=O)N[C@@H](CC(C)C)C(=O)N[C@H](C=NNC(=O)OC(C)(C)C)Cc3ccccc3)oc12` had an XC50 of 304 nM. Take `Cc1cccc(Cl)c1S(=O)(=O)N1CCCCC(c2ccc(C(F)(F)F)cc2)=N1`: the XC50 came out at 216 nM. The molecule `CC(CCc1ccc(OCc2ccccc2)cc1)NCC(O)c1ccccc1` (configuration not stated) returned an XC50 of 1100 nM. `Cc1cccc2nc(-c3ccc(-c4ccc(NC(=O)C(C)CN(C)C)cc4)s3)[nH]c12` (configuration not stated) displayed an XC50 of 409 nM. As for `COc1ccc(C2N=C(N)N=C(N)N2OCc2ccccc2)cc1OC` (configuration not stated), the XC50 came out at 133 nM. For `CN(c1ccc(NC(=O)Nc2cc(C(C)(C)C)on2)cc1)c1ccnc(NCCN2CCOCC2)n1` the value was 1120 nM; for `COc1ccc2nc(N3CCNCC3)nc(NCCCc3ccccc3)c2c1`, 1000 nM; for `CN(C)c1cccc2c1nc(-c1ccco1)n2CCNCc1ccccc1`, 814 nM. `Cc1ccc(-c2ccn(Cc3ccc(OCc4ccccc4)cc3)n2)cn1.Cc1ccc(-c2ccnn2Cc2ccc(OCc3ccccc3)cc2)cn1` yielded an XC50 of 674 nM.

Regarding `c1ccc(CN2CCC(Nc3ccc(-c4c[nH]nc4-c4ccccn4)nc3)CC2)cc1`, the XC50 is 799 nM. `N#Cc1ccc(N2CCN(Cc3ccc(-c4ccc(-c5nc6cc(F)ccc6[nH]5)s4)cc3)CC2)nc1` registered an XC50 of 854 nM. Take `COc1cncc(/C=C/c2cncc(C(=O)NCCc3ccc(Cl)cc3Cl)c2)c1`: the XC50 was 879 nM. `O=S(=O)(Nc1cccc(CCN2CCC(N3CCCCC3)CC2)c1)c1cccc2cccnc12` returned an XC50 of 851 nM.

`Cc1ccc(CNC(=O)[C@H](CCCN)Nc2cc(C)nc(Nc3ccccc3)n2)cc1` gave an XC50 of 1290 nM.

As to `O=[N+]([O-])c1cccc(CNCC2CCN(CC3CCCCC3)CC2)c1`, the XC50 came to 1290 nM.

As for `c1ccc(-n2ncc(CNCc3ccc(-c4ccc(-c5nc6ccccc6[nH]5)s4)cc3)n2)cc1`, the XC50 turned out to be 1400 nM.

As to `Cc1noc(-c2ccc3c(c2)CCN(CCC2CCC(NC(=O)c4cc5ccccc5[nH]4)CC2)CC3)n1` (configuration not stated), the XC50 came out at 689 nM. On to `CCCCc1cc(=O)oc2cc(C)cc(OCc3ccccc3F)c12`, for which the XC50 was 1030 nM.

As to `CN1CCc2cc(I)c(O)cc2C1Cc1ccccc1Cl` (configuration not stated), the XC50 stood at 788 nM. As to `CC(C)CNCc1cccc(-c2ccc(CNC3CCN(Cc4ccccc4)CC3)cc2)c1`, the XC50 turned out to be 271 nM.

With `OC1(Cc2ccccc2)CCN(Cc2cccc(-c3c[nH]c4nc(NC5CCCC5)ncc34)c2)CC1`, the XC50 worked out at 929 nM. `Fc1ccc2[nH]c(-c3ccc(-c4ccc(CNCCN5CCNCC5)cc4)s3)nc2c1` registered an XC50 of 779 nM.

Consider `O=C(Nc1nccs1)c1cc(-c2cccnc2)nc2ccc(Br)cc12`, for which the XC50 stood at 403 nM. `Cc1cccc2nc(-c3cccc(-c4ccc(NC(=O)c5cnccc5C(F)(F)F)cc4)c3)[nH]c12` had an XC50 of 695 nM. Next, `Cc1cc(Nc2ccncc2)n2nc(C)c(-c3ccccc3Cl)c2n1`: 654 nM.

`O=C(NCCCc1ccccc1)c1csc(C2CCCN(C(=O)c3ccc(O)c(-c4cccc5ccccc45)c3)C2)n1` (configuration not stated): the XC50 was 967 nM. In turn, `Cc1cc(N[C@@H](CC(C)C)C(=O)Nc2ccccc2)nc(NCc2ccccc2C)n1` came in with an XC50 of 777 nM. For `CCc1sc(N2CCC(C)CC2)nc1C(=O)Nc1ccc(F)cc1C(F)(F)F` the value was 1090 nM. Regarding `CCNc1cc(-c2cccc(OC)c2)nc(Nc2ccc(F)cc2)n1`, the XC50 was found to be 1270 nM.

Molecule `CCN(CC)CCN(Cc1ccc(-c2ccc(C(F)(F)F)cc2)cc1)C(=O)Cn1c(CCc2cccc(F)c2F)nc(=O)c2cc(F)c(F)cc21` registered an XC50 of 833 nM. For `Cc1cccc2nc(-c3ccc(-c4cccc(CN5CCCC(O)C5)c4)s3)[nH]c12` (configuration not stated) the value was 942 nM. In the case of `COc1cccc(NC(=O)NCCNc2ccnc(Nc3ccc(F)cc3)n2)c1`, the XC50 was found to be 917 nM. Regarding `CC(Oc1ccc(NC(=O)c2cccs2)cc1)C(=O)c1ccc(Cl)cc1` (configuration not stated), the XC50 was found to be 774 nM.

As for `O=C(NCCCCCN1CCC(c2c[nH]c3ccccc23)CC1)c1ccc(-c2cccnc2)cc1`, the XC50 came out at 1030 nM. Take `CCN1CCC(N(Cc2ccc(-c3ccc(C(F)(F)F)cc3)cc2)C(=O)Cn2c(SCc3ccc(F)cc3)nc(=O)c3c2CCC3)CC1`: the XC50 was 991 nM.

The molecule `Cc1ccccc1CNc1noc(-c2c(-c3ccccc3)noc2C)n1` yielded an XC50 of 902 nM. Molecule `Cc1ccc(C)c(Cn2c(N3CCC(C(=O)NCc4cccs4)CC3)nc3ccccc32)c1` came in with an XC50 of 938 nM. `Cc1cc(CN2CC[C@H](NC(=O)c3ccc(Cl)c(Cl)c3)C2)ccc1OCCCN(C)C` yielded an XC50 of 842 nM.

The molecule `C=CCOc1cccc2c1CCN(CCN1CCC(NC(=O)c3ccc(-c4ccc(Cl)cc4)cc3)CC1)C2` came in with an XC50 of 673 nM.

As for `OC(CNCCCCCCNCC(O)c1ccc(Cl)c(Cl)c1)c1ccc(Cl)c(Cl)c1` (configuration not stated), the XC50 amounted to 915 nM. Take `O=C(/C=C/c1cccc(C(F)(F)F)c1)NCCCCCN1CCC(c2c[nH]c3ccccc23)CC1`: the XC50 stood at 836 nM.

In turn, `NC(=O)c1ccsc1NC(=O)CNC(c1ccc(F)cc1)c1cccs1` (configuration not stated) yielded an XC50 of 947 nM. Take `CCN(CCCN1CCCCC1)c1cc(C)nc(Nc2ccc(C(C)C)cc2)n1`: the XC50 is 543 nM. Regarding `CN(C)C(=S)N/N=C1/C(=O)Nc2ccccc21`, the XC50 was 1050 nM.

`O=C(Nc1ccc2oc(-c3ccc(Br)cc3)nc2c1)c1ccc([N+](=O)[O-])o1` displayed an XC50 of 968 nM. For `COc1ccc2c(-c3ccccc3)noc2c1` the value was 241 nM; for `NC(=O)c1c(Cl)nc2ccccc2c1Cl`, 960 nM.

The molecule `Cc1cccc2nc(-c3ccc(-c4cccc(CNCCCN5CCCC5=O)c4)cc3)[nH]c12` yielded an XC50 of 840 nM. Take `Cn1cncc1-c1ccc2ncnc(Nc3ccc(OCc4ccccc4)cc3)c2c1`: the XC50 is 1340 nM. The molecule `Nc1nc(N)c2c(ccc3c2ccn3Cc2cccc(F)c2)n1` had an XC50 of 3.2 nM.

As for `FC(F)(F)c1ccc(-c2cncc(-c3ccc(C(F)(F)F)cc3)n2)cc1`, the XC50 worked out at 759 nM. Next, `COc1ccc2nccc([C@@H](O)CN3CCC(NCc4[nH]c5ccccc5c4F)CC3)c2c1`: 247 nM. Molecule `COc1ccc(N2CCN(CCCN3CCN(C(=O)c4ccc(/C=C/c5ccc(Cl)c(Cl)c5)cc4)CC3)CC2)c(OC)c1` came in with an XC50 of 907 nM. Next, `CC(C)CC(=O)NC1CCN(Cc2c(-c3cccs3)nc3ccccc3c2C(=O)N[C@@H](C)C2CCCCC2)CC1`: 819 nM; `COc1ccc(CN(C)C(=O)CCNS(=O)(=O)c2ccc3c(c2)OCCCO3)cc1F`: 656 nM; `CCc1c(C(=O)NC2CCC(N3CCC(c4ccccc4C)CC3)CC2)[nH]c2ccc(OC)cc12` (configuration not stated): 808 nM.
